In patent publication US12233043B1, “Method of transdermal delivery of cannabinoid compositions” (Florida A&M University, priority 2022, dated 2025):
Where two headings read alike, the source gives them in different places.

How the values were obtained:
[1] = Pre-formulation solubility of CBD, THCV and CBG in solvents; assay type: physicochemical
Method: Pre-Formulation Studies: Solubility of CBD, THCV and CBG
The solubility of APIs including CBD, CBG and THCV was determined in various solvents including dimethyl sulfoxide (DMSO), N-Methyl-2-pyrrolidone (NMP), and PEG 400. Briefly, 100 mg of each API was dissolved in 0.5 ml of DMSO, NMP, PEG400 and vortexed until it dissolved completely. All the solutions were then visually observed for any undissolved particles. Further, all the solubility samples were centrifuged, and the supernatant were collected. Samples were then analyzed using HPLC for the amount of drug solubilized in each solvent.

[2] = tested on: carrageenan-induced paw edema; test: Carrageenan-induced acute inflammatory (paw edema) model; assay type: in vivo, Sprague Dawley (SD) rats; settings: as compared to control (no treatment)
Method: Carrageenan-Induced Acute Inflammatory Model
The anti-inflammatory effect of the gel formulations was assessed using carrageenan-induced paw edema model (Whiteley and Dalrymple 1998, Lee and Crosby 1999, Sammons, Raval et al. 2000, Cong, Khaziakhmetova et al. 2015) using Sprague Dawley (SD) rats. This model was deduced suitable for the evaluation of anti-inflammatory and anti-hyperalgesic drugs (Whiteley and Dalrymple 1998, Lee and Crosby 1999, Sammons, Raval et al. 2000, Cong, Khaziakhmetova et al. 2015). Edema was induced in male Sprague Dawley (SD) rats by sub-plantar injection of 50 μL of 0.1% λ-carrageenan (22049 SIGMA λ-Carrageenan plant-mucopolysaccharide, Sigma-Aldrich) gel in nuclease free water into the left hind paw of the animals. The inventors evaluated the intensity, development, and duration of the induced inflammation by measurements of rat paw volume using a digital plethysmometer (LE 7500, Panlab, Harvard Apparatus). Measurements were made prior to edema induction (base-line volume) and at 1, 2, 4, 6, 8, 12, and 24 hrs after sub-plantar carrageenan injection. The intensity of inflammation was assessed by calculating the percentage of increase in paw volume against the base-line measurements. Animals were divided into 4 groups of 4 rats each; group 1: control (no treatment); group 2: CBD gel (Gel A); group 3: CBG gel (Gel I); and group 4: THCV gel (Gel J). […] Therefore, placebo gels were not considered in the study.

[3] = solution in propylene glycol, water and ethanol, Stinchcomb et al 2004, cited from earlier work
[4] = In-vitro skin permeation study (IVPT), Franz diffusion cells; assay type: in vitro ADME, Human; settings: for cumulative drug permeation: end of 72 hrs
Method: In-Vitro Skin Permeation Study
The in-vitro permeation and deposition studies were performed under occlusive conditions using jacketed Franz diffusion cells with a 0.636 cm2 permeation area and 5 mL receptor chamber volume. Human skin used was obtained from The New York Fire Fighter's skin bank and originated from the right and left posterior leg regions. Dermatomed, cryopressed split thickness skin with epidermis and dermis were delivered in plastic bags and stored at −80° C. until further use.
Skin was thawed in water for 45 minutes and was cut into small pieces and mounted on Franz cells. Receptor medium containing PBS with 25% (v/v) ethanol and 5% (v/v) Tween 80 was used for the IVPT study. 0.01% (w/v) sodium azide was added in the receiving media and sonicated for 20 mins to degasify it. To ensure the absence of bubbles in the receptor chamber, each cell was turned upside down to allow release of air though the sampling port. The cells were then left to equilibrate for about 10 mins before application of hydrogel samples. To begin the permeation experiment, 0.2 mL samples of each formulation was pipetted onto the donor compartment. The donor compartment of each cell was sealed with parafilm and perforated with a needle and the fastened to the receiving compartment using a clamp. Following the completion of the experimental setup, the Franz diffusion cells were blanketed to prevent photo-degradation of samples and the system kept at 32.3° C. with the use of its circulating water bath to maintain the skin surface temperature of 32° C. throughout the duration of the experiment. A 72 hr experimentation duration was employed with sampling times set at 24 hr increments. 1 mL samples were withdrawn from the receptor chamber via the sampling port and analyzed by HPLC, and the entire remaining receiving media in the receptor chamber was discarded and replaced with a fresh batch. The cumulative amount of drug permeated through the skin per unit area (Qp) was calculated from drug concentration in the receptor fluid and plotted as a function of time. The steady-state flux (J) was determined as the slope of the linear portion of the plot.

[5] = in DMSO, NMP, PEG 400 and lactic acid

Compound | solubility [1, 5] | paw edema [2] | cumulative amount of CBD permeation ([3]; end of 48 hrs) | maximum flux ([3]; 48 hrs IVPT) | solubility [1] | cumulative drug permeated in the receiving media ([4]; 24 hrs, human skin, gel 10% w/w) | cumulative drug permeation ([4]; human skin, gel 10% w/w) | drug permeation ([4]; 24 hours post administration)
C=C(C)[C@@H]1CCC(C)=C[C@H]1c1c(O)cc(CCCCC)cc1O [CBD, Cannabidiol, reference compound] | high solubility | significantly (p<0.0001) reduced | ~78.61 µg | ~1.47 μg/cm^2/hr |  |  |  | 
CCCCCc1cc(O)c(C/C=C(\C)CCC=C(C)C)c(O)c1 [CBG, Cannabigerol] |  | significantly (p<0.0001) reduced |  |  | high solubility | at least 136 μg/cm^2 | at least 321 μg/cm^2 | 
CCCc1cc(O)c2c(c1)OC(C)(C)[C@@H]1CCC(C)=C[C@@H]21 [THCV, Tetrahydrocannabivarin] | high solubility | significantly (p<0.0001) reduced |  |  |  |  | at least 2124 μg/cm^2 | at least 843 g/cm^2
